Source: patent publication US8735391B2, “Synthesis of functionalized octahydro-isoquinolin-1-one-8-carboxamides, octahydro-isoquinolin-1-one-8-carboxylic esters and analogs, and therapeutic methods” (University of Kansas, priority 2008, dated 2014)

How the values were obtained:
KOR [1] = biological target: T1, KOR (Homo sapiens, UniProt P41145); experiment: Opioid secondary binding, KOR (Tables 4, 5, 8, 9); conditions: Opioid secondary binding activity for Formula 10 analogs; read-out: KOR, Ki
DOR = DOR (Homo sapiens, UniProt P41143); experiment: Opioid secondary binding, DOR (Table 4); conditions: Opioid secondary binding activity for Formula 10 analogs
KOR [2] = biological target: T1, KOR; experiment: [35S]GTPγS binding functional agonist assay on membranes of CHO cells expressing hKOR (reference agonist U69593); format: biochemical; set-up: expressed in transfected cells; host or cells: CHO cells, stably transfected; crude membrane fractions; conditions: test compound at 10 micromolar; N=4; reference agonist = 100%; CHO-cell line expressing hKOR
Protocol: The compounds prepared herein were tested for bioactivity with opioid receptors. Agonist assays: Data represent the percent efficacy (relative to cognate agonist) of the test compound at 10 micromolar. The response to a saturating concentration of a reference antagonist or to vehicle (usually none or negligible) is set to 0%. […] The response inhibition elicited by a saturating concentration of reference antagonist is set to 100%; the response inhibition (usually none or negligible) elicited by vehicle is set to 0%. The following tables provide data related to the bioactivity for opioid receptors of the compounds described herein.
Table 6 provides data that represent the average percent efficacy (N=4; relative to cognate agonist) of the test compound at 10 micromolar concentration. The response to a saturating concentration of cognate/reference agonist is set to 100%; the response to a saturating concentration of a reference antagonist or to vehicle (usually none or negligible) is set to 0%. All functional assays are performed on stably transfected CHO-cell lines expressing hKOR, hMOR or hDOR.
(§1) Serial dilutions of the test and reference compounds are made in binding buffer at 2× assay concentration (final assay concentrations ranging from 0.1 nM to 10 μM). Crude membrane fractions (1.8 to 3.5 cm2/well) (prepared from 10-cm plates by harvesting PBS-rinsed monolayers, resuspending and lysing in chilled, hypotonic 50 mM Tris-HCl, pH 7.4, centrifuging at 20,000×g, decanting the supernatant and storing at −80 degrees centigrade; typically, one 10-cm plate provides sufficient material for 24 wells) are resuspended in 1.2 ml of assay buffer containing 20 μM GDP, wheat germ agglutinin (WGA)-coated scintillation proximity beads (2.4 mg), and [35S]GTPγS (300 pM final). The suspension is then added (50 μl/well) to 50 μl of the 2× test or reference compounds (each concentration assayed in triplicate) in flexible transparent PET 96-well plates. The reaction plate is sealed and incubated for 90 min at room temperature, then centrifuged for 5 min at 216×g, and finally loaded into a Wallac MicroBeta TriLux counter. Non-specific [35S]GTPγS binding is assessed at the maximum concentration of reference agonist in the presence of 10 μM antagonist. The background signal is measured at 10 μM reference agonist in the presence of 10 μM unlabeled GTPγS. Raw data (dpm) representing total [35S]GTPγS binding (i.e., specific+non-specific binding) are calculated as a percentage of the maximum response by the reference agonist (in this case U69593).
as §1, with “GTPγS.” for “GTPγS. Raw data (dpm) representing total [35S]GTPγS binding (i.e., specific+non-specific binding) are calculated as a percentage of the maximum response by the reference agonist (in this case U69593).”

T1 sequence (P41145 whole entry): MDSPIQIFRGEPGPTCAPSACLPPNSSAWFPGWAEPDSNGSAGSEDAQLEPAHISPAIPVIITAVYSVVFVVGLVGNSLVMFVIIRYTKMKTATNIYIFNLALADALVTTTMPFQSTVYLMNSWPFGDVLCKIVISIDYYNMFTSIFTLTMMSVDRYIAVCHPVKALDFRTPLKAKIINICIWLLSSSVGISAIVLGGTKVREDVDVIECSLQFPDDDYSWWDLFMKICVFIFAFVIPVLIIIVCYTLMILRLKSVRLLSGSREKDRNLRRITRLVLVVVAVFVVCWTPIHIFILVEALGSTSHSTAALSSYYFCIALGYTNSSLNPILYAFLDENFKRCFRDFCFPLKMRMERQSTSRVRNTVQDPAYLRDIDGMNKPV
Chain of DOR (P41143 whole entry): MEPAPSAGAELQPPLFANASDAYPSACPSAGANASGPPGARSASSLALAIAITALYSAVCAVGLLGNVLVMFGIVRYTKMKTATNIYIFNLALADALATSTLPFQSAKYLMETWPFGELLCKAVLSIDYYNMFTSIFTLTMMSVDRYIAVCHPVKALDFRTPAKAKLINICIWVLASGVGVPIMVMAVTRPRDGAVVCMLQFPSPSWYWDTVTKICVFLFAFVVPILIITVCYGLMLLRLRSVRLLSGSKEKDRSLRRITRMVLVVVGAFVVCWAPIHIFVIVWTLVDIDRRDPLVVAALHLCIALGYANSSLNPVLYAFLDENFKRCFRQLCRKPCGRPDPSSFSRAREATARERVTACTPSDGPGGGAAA

SMILES	Ki (KOR [1]) [µM]	Ki (DOR) [µM]	KOR agonist (average percent efficacy relative to cognate agonist) (KOR [2]) [%]
CC(c1ccccc1)N1CCC2C=CCC(C(=O)NC3CCCCC3)C2C1=O (mixture of isomers) [compound 12163]	5.91	1.16	–
CC(c1ccccc1)N1CCC2C=CCC(C(=O)Nc3ccccc3)C2C1=O (mixture of isomers) [compound 12164]	4.78	1.38	–
O=C([C@@H]1CC=C[C@@H]2CCN(C3CC3)C(=O)[C@@H]21)N1CCOCC1 (racemic) [compound 8909]	–	–	7.8
CCCCN1CC[C@H]2C=CC[C@@H](C(=O)N3CCOCC3)[C@H]2C1=O (racemic) [compound 8911]	–	–	8.3
CCCCN1CC[C@H]2C=CC[C@@H](C(=O)N3CCN(c4ccccc4)CC3)[C@H]2C1=O (racemic) [compound 8914]	–	–	9.9
O=C(NCCc1ccccc1)[C@@H]1CC=C[C@@H]2CCN(C3CC3)C(=O)[C@@H]21 (racemic) [compound 8917]	–	–	6.6
O=C(NC1CCCCC1)[C@@H]1CC=C[C@@H]2CCN(C3CC3)C(=O)[C@@H]21 (racemic) [compound 8921]	–	–	4.1
COc1ccc(CNC(=O)[C@@H]2CC=C[C@@H]3CCN(C4CC4)C(=O)[C@@H]32)cc1 (racemic) [compound 8925]	–	–	5.4
CCCCN1CC[C@H]2C=CC[C@@H](C(=O)NCc3ccc(OC)cc3)[C@H]2C1=O (racemic) [compound 8927]	–	–	8.7
COc1ccc(CNC(=O)[C@@H]2CC=C[C@@H]3CCN(Cc4ccc(OC)c(OC)c4)C(=O)[C@@H]32)cc1 (racemic) [compound 8929]	–	–	3.6
O=C(NCc1cccnc1)[C@@H]1CC=C[C@@H]2CCN(C3CC3)C(=O)[C@@H]21 (racemic) [compound 8930]	–	–	4
COc1ccc(NC(=O)[C@@H]2CC=C[C@@H]3CCN(C4CC4)C(=O)[C@@H]32)cc1 (racemic) [compound 8944]	–	–	1
O=C(Nc1ccc(Cl)cc1Cl)[C@@H]1CC=C[C@@H]2CCN(C3CC3)C(=O)[C@@H]21 (racemic) [compound 8948]	–	–	29.6
O=C(Nc1ccc(Cl)c(C(F)(F)F)c1)[C@@H]1CC=C[C@@H]2CCN(Cc3ccc(Cl)c(Cl)c3)C(=O)[C@@H]21 (racemic) [compound 8957]	–	–	33.1
Cc1ccc(NC(=O)[C@@H]2CC=C[C@@H]3CCN(Cc4ccccc4)C(=O)[C@@H]32)cc1Cl (racemic) [compound 11931]	2.57	0.061	–
O=C(Nc1ccc([N+](=O)[O-])c(C(F)(F)F)c1)[C@@H]1CC=C[C@@H]2CCN(Cc3ccccc3)C(=O)[C@@H]21 (racemic) [compound 11932]	0.2	0.041	–
O=C(Nc1ccc(I)cc1)[C@@H]1CC=C[C@@H]2CCN(Cc3ccccc3)C(=O)[C@@H]21 (racemic) [compound 11954]	2.83	0.194	–
O=C(NCc1cccc(Br)c1)[C@@H]1CC=C[C@@H]2CCN(Cc3ccccc3)C(=O)[C@@H]21 (racemic) [compound 11955]	3.27	0.438	–
O=C(Nc1ccc(Cl)cc1)[C@@H]1CC=C[C@@H]2CCN(Cc3ccccc3)C(=O)[C@@H]21 (racemic) [compound 12102]	5.03	0.165	–
O=C(NCc1ccc(Cl)c(Cl)c1)[C@@H]1CC=C[C@@H]2CCN(Cc3ccccc3)C(=O)[C@@H]21 (racemic) [compound 12148]	2.78	0.644	–
O=C(Nc1ccc(Cl)c(C(F)(F)F)c1)[C@@H]1CC=C[C@@H]2CCN(Cc3cccc(Br)c3)C(=O)[C@@H]21 (racemic) [compound 12170]	1.46	1.72	–

SMILES	Ki (KOR [1]) [µM]	Ki (DOR) [µM]	KOR agonist (average percent efficacy relative to cognate agonist) (KOR [2]) [%]
O=C(Nc1ccc(Br)c(C(F)(F)F)c1)[C@@H]1CC=C[C@@H]2CCN(Cc3cccc(Br)c3)C(=O)[C@@H]21 (racemic) [compound 12171]	0.694	0.503	–
O=C(Nc1ccc(Br)c(C(F)(F)F)c1)[C@@H]1CC=C[C@@H]2CCN(CC3CCCCC3)C(=O)[C@@H]21 (racemic) [compound 12173]	–	0.508	–
O=C(Nc1ccc(F)c(C(F)(F)F)c1)[C@@H]1CC=C[C@@H]2CCN(Cc3ccccc3)C(=O)[C@@H]21 (racemic) [compound 13474]	–	0.192	–
Cc1ccc(NC(=O)[C@@H]2CC=C[C@@H]3CCN(Cc4ccccc4)C(=O)[C@@H]32)cc1C(F)(F)F (racemic) [compound 13475]	1.16	0.039	–
Cc1ccc(NC(=O)[C@@H]2CC=C[C@@H]3CCN(Cc4ccccc4)C(=O)[C@@H]32)c(F)c1F (racemic) [compound 13476]	–	0.559	–
O=C(Nc1ccc(Br)c(C(F)(F)F)c1)[C@@H]1CC=C[C@@H]2CCN(Cc3ccccc3F)C(=O)[C@@H]21 (racemic) [compound 13478]	0.299	0.022	–
Cc1ccc(NC(=O)[C@@H]2CC=C[C@@H]3CCN(Cc4ccccc4F)C(=O)[C@@H]32)cc1C(F)(F)F (racemic) [compound 13479]	–	0.0095	–
COc1ccccc1CN1CC[C@H]2C=CC[C@@H](C(=O)Nc3ccc(C)c(C(F)(F)F)c3)[C@H]2C1=O (racemic) [compound 13481]	1.9	1.34	–
O=C(Nc1ccccc1)[C@@H]1CC=C[C@@H]2CCCN(C3CCCCC3)C(=O)[C@@H]21 (racemic) [compound 14423]	–	8.84	–
O=C(NC1CCCCC1)[C@@H]1CC=C[C@@H]2CCCN(C3CCCCC3)C(=O)[C@@H]21 (racemic) [compound 14424]	–	1.69	–
O=C(Nc1cccc(Cl)c1)[C@@H]1CC=C[C@@H]2CCCN(C3CCCCC3)C(=O)[C@@H]21 (racemic) [compound 14425]	–	6.04	–
O=C(Nc1nccs1)[C@@H]1CC=C[C@@H]2CCCN(C3CCCCC3)C(=O)[C@@H]21 (racemic) [compound 14428]	–	2.99	–
O=C(Nc1ccccc1)[C@@H]1CC=C[C@@H]2CN(Cc3ccccc3)C(=O)[C@@H]21 (racemic) [compound 14429]	–	7.02	–
O=C(Nc1ccc(Br)c(C(F)(F)F)c1)[C@@H]1CC=C[C@@H]2CN(Cc3ccccc3)C(=O)[C@@H]21 (racemic) [compound 14432]	–	2.77	–
O=C(Nc1ccc(Cl)c(C(F)(F)F)c1)[C@@H]1CC=C[C@@H]2CN(Cc3ccccc3)C(=O)[C@@H]21 (racemic) [compound 14433]	–	1.94	–
O=C(Nc1ccccc1)[C@@H]1CC=C[C@@H]2CN(C3CCCCC3)C(=O)[C@@H]21 (racemic) [compound 14435]	–	1.61	–
O=C(NC1CCCCC1)[C@@H]1CC=C[C@@H]2CN(C3CCCCC3)C(=O)[C@@H]21 (racemic) [compound 14436]	–	2.15	–
O=C(Nc1cccc(Cl)c1)[C@@H]1CC=C[C@@H]2CN(C3CCCCC3)C(=O)[C@@H]21 (racemic) [compound 14437]	–	0.962	–
O=C(Nc1ccc(Br)c(C(F)(F)F)c1)[C@@H]1CC=C[C@@H]2CN(C3CCCCC3)C(=O)[C@@H]21 (racemic) [compound 14438]	–	1.92	–
O=C(Nc1ccc(Cl)c(C(F)(F)F)c1)[C@@H]1CC=C[C@@H]2CN(C3CCCCC3)C(=O)[C@@H]21 (racemic) [compound 14439]	–	5.35	–
